Measurements: patent US10508088B2, “Methods using HDAC11 inhibitors” (FORMA Therapeutics, Inc., priority 2016, dated 2019)

Tests used:
HEL 92.1.7 cells = assay: Cell proliferation assay (CCK8); assay type: cell-based; conditions: HEL 92.1.7, 48 h
Description: (§1) This example describes inhibition of in vitro cell proliferation with exemplary HDAC11 inhibitors. The effects of selective HDAC11 inhibitors on cell proliferation were measured in cell lines containing the MPN-associated mutations MPL W515L (Ba/F3 MPL W515L) and JAK2 V617F (Ba/F3 JAK2 V617F, HEL 92.1.7, SET-2). HEL 92.1.7 and SET-2 cells were purchased from the ATCC and DSMZ, respectively. Ba/F3 cells overexpressing either MPLW515L or JAK2V617F, which were cytokine independent, were generated by transforming Ba/F3 cells with retroviruses overexpressing either MPL W515L or JAK2V617F. For survival assays, cells were seeded in 96-well plates at the density of 0.1 million/ml with addition of indicated compounds and incubated at 37° C. for 48 h. CCK8 solution (Dojindo, Rockville, Md.) was added and absorbance at 450 nm was measured after 3 hours of incubation. Readings were normalized to dimethylsulfoxide (DMSO)-treated wells.

SET-2 cells = assay: Cell proliferation assay (CCK8); assay type: cell-based; conditions: Ruxolitinib-resistant SET-2
Description: as §1

[1] = test system: myeloid cells from MPN patients; assay: Colony formation assay from MPN patient samples; assay type: cell-based, human; conditions: MPN patient samples (ET; PV Ruxolitinib resistant), scored 12 to 14 days
Description: (§2) To determine the effects of selective HDAC11 inhibition on MPN patient samples, the effects of HDAC11 inhibitors were evaluated in a colony formation assay with erythroid or myeloid cells from MPN patients. Peripheral blood was obtained from MPN patients consented through the Moffitt Cancer Center Total Cancer Care protocol (MCC 14690). Blood was treated with HetaSep™ (STEMCELL Technologies, Inc.) to remove the majority of red blood cells. Peripheral blood mononuclear cells (PBMCs) were isolated by ficoll separation. PBMCs (1-4×105) were then plated in 1 mL of methylcellulose medium containing rhSCF, rhIL-3, and granulocyte-macrophage colony-stimulating factor (rhGM-CSF) (MethoCult™ #H4534; STEMCELL Technologies, Inc.). All drug treated samples contained 0.1% DMSO as the final concentration. Cells were incubated at 37° C. and 5% CO2 in a humidified incubator. Colonies were scored 12 to 14 days after plating.

[2] = test system: erythroid cells from MPN patients; assay: Colony formation assay from MPN patient samples; assay type: cell-based, human; conditions: MPN patient samples (ET; PV Ruxolitinib resistant), scored 12 to 14 days
Description: as §2

[3] = test system: STAT3 phosphorylation in HEL 92.1.7 cells; assay: STAT3 and STAT5 phosphorylation western blot assay; assay type: cell-based; conditions: HEL 92.1.7, western blot
Description: (§3) The effects of selective HDAC11 inhibition on STAT3 and […] phosphorylation in HEL 92.1.7 cells were determined by western blot. Cells were treated with HDAC11 inhibitors and lysed in RIPA buffer (Sigma-Aldrich, St. Louis, Mo.) supplemented with protease inhibitors (Roche, Basel, Switzerland) and phosphatase inhibitors (Sigma P5726). Protein concentrations were determined with Pierce BCA protein assay kit (Thermo Fisher Scientific, Waltham, Mass.). Proteins were separated on a 4-12% Bis-Tris gradient electrophoresis gel (Life Technologies, Carlsbad, Calif.) and transferred onto a nitrocellulose membrane. The membrane was then blocked in either 5% nonfat dry milk or 5% BSA followed by incubation with primary antibodies at 4° C. overnight. Antibodies for p-STAT5 (Abcam 32364), STAT5 (Cell Signaling 9358), p-STAT3 (Cell Signaling 9145) and STAT3 (Cell Signaling 9139) were used. β-actin was used as loading control.

[4] = test system: STAT5 phosphorylation in HEL 92.1.7 cells; assay: STAT3 and STAT5 phosphorylation western blot assay; assay type: cell-based; conditions: HEL 92.1.7, western blot
Description: as §3

A549 cells = assay: Cell migration scratch assay; assay type: cell-based
Description: The effects of HDAC11 inhibition on cell migration were determined using a scratch assay. A549 cells (120,000-150,000 cells/2 ml/well) were grown in 6-well tissue culture plates (BD Biosciences). A scratch was made using a sterile 2 μl pipette tip in each well. The 10% FBS containing medium was added to the wells after a wash with DPBS. To assess the effect of the HDAC11 inhibitors on cell migration, the inhibitors were added in the medium at appropriate concentrations. The cells were further incubated at 37° C. The images were taken on Day 0 and after every 24 hours using EVOS FL microscope system and EVOS software (Life Technologies Inc) and the cell migration was compared to the Day 0 of treatment.

[5] = test system: primary CAFs from human lung cancer; assay: Co-culture assay with cancer cells and cancer associated fibroblasts; assay type: cell-based; conditions: 1:1 co-culture with H1650
Description: (§4) The effects of selective HDAC11 inhibition on cancer cells and cancer associated fibroblasts (CAFs) were determined in a co-culture assay. The cells were first trypsinized and collected in serum containing medium and were further incubated in same media at 37° C. for 15-20 min for recovery. The cells were resuspended in serum free media at 1×10^6 cells/ml density and stained with 10 uM of cytotracker green (Cancer associated fibroblasts) or cytotracker red dye (H1650 cells) (Life Technologies Inc) at 37° C. for 90 min. The stained cells were washed twice with serum free medium to remove excess dye at 1500 rpm for 5 min. The cytotracker green stained CAFs were mixed with cytotracker red stained H1650 cells in 1:1 ratio and grown in 96-well tissue culture plate overnight. The HDAC11 inhibitors were then added to the mixed adhered cells (CAFs+H1650) at appropriate concentrations. The images were taken on Day 0 and after every 24 hours using EVOS FL microscope system and EVOS software (Life Technologies Inc).

[6] = test system: H1650 cells co-cultured with primary CAFs; assay: as above; assay type: cell-based; conditions: 1:1 co-culture
Description: as §4

Row | Structure (SMILES) | growth of the HEL 92.1.7 cell line (HEL 92.1.7 cells) | growth of SET-2 cell line generated to be Ruxolitinib-resistant (SET-2 cells) | growth of colonies from myeloid cells [1] | growth of colonies from erythroid cells [2] | STAT3 phosphorylation [3] | STAT5 phosphorylation [4] | cell migration (A549 cells) | effects on CAFs [5] | growth of H1650 cells co-cultured with primary CAFs [6]
1 | O=C(NO)c1cccc(Nc2nc3cc(Cl)c(Cl)cc3o2)c1 [HDTK010, 3-((5,6-dichlorobenzo[d]oxazol-2-yl)amino)-N-hydroxybenzamide] | inhibited the growth | inhibited the growth | reduced the growth of colonies | reduced the growth of colonies | inhibited | inhibited |  |  | 
2 | O=C(NO)c1cccc2c1C[C@]1(CCN(Cc3ccc(Cl)c(C(F)(F)F)c3)C1=O)C2 [HDTK054, (S)-1′-(4-chloro-3-(trifluoromethyl)benzyl)-N-hydroxy-2′-oxo-1,3-dihydrospiro[indene-2,3′-pyrrolidine]-4-carboxamide] |  |  |  |  |  |  | impaired | minimal effects | inhibit the growth
